Assay results taken from patent US20150159131A1, “METHODS AND COMPOSITIONS FOR REGULATING MUSASHI FUNCTION” (Board of Trustees of the University of Arkansas, priority 2011, published 2015).

Experiments:
Type in all cases: cell-based, Xenopus
[1] = tested on: Mos mRNA; assay: Polyadenylation assay of endogenous Mos mRNA (RNA ligation-coupled PCR)
Source text: The increase in PCR product length is specifically due to extension of the poly[A] tail. The primer used to analyze endogenous Xenopus Musashi1 mRNA polyadenylation was [NT] ID NO:24).

[2] = tested on: Musashi1 S322 phosphorylation; assay: Western blot for S322-phosphorylated Musashi1 in oocyte lysates
Protocol: Xenopus oocytes were isolated and cultured. Oocytes were induced to mature with 2 μg/ml progesterone. The rate of germinal vesicle breakdown (GVBD) was scored morphologically by observing the appearance of a white spot on the animal pole. Because oocytes from different frogs mature at different rates in response to progesterone, the culture times were standardized between experiments to the time taken for 50% of oocytes to undergo GVBD. Where indicated, oocytes were pre-treated with 50 μM MEK inhibitor, UO126 or DMSO vehicle for 30 minutes.
Antisera for phosphorylation specific Musashi1 S322 were generated by immunizing rabbits with the peptide VSSYISAAS(phospho)PAPSTGF (SEQ ID NO:26). The antibodies were affinity purified through a peptide-affinity column and used at 1:1000. Abcam antibodies to Musashi1 were used at 1:1000. Sigma Tubulin antibodies were used at 1:20,000. The phospho-specific Cdc2 antibody was used at 1:1000 and detects the inhibitory Tyr15 phosphorylation. The phospho-specific MAP kinase antibody (Cell Signaling) was used at 1:1000 and detects the activating phosphorylations at Thr202/Tyr204. The GST antibody (Santa Cruz) was used at 1:1000. The Xenopus Ringo antibody was used at 1:1000.
Oocytes were lysed in NP40 lysis buffer containing sodium vanadate and a protease inhibitor cocktail. Where indicated, a portion of the lysate was transferred to STAT-60 for RNA extraction. […]

[3] = tested on: Musashi1 protein; assay: Western blot for endogenous Musashi1 protein accumulation at GVBD50; details: at GVBD50, normalized to tubulin, 3 experiments, p<0.01
Protocol: Oocytes were lysed in NP40 lysis buffer containing sodium vanadate and a protease inhibitor cocktail. Where indicated, a portion of the lysate was transferred to STAT-60 for RNA extraction. Protein lysates were then spun, clarified and transferred immediately to 1× sample buffer. The lysates were run on a 10% Nupage gel and transferred to a 0.2 μm-pore-size nitrocellulose filter. The membrane was blocked with 1% bovine serum albumin in TBST for 60 min at room temperature. Following incubation with primary antibody, filters were incubated with horseradish peroxidase conjugated secondary antibody using enhanced chemiluminescence in a Fluorchem 8000 Advanced Imager. To determine if Musashi is regulated by progesterone, Musashi levels were detected in progesterone stimulated oocytes using methods described in Example 1. […] Lysates from oocytes treated with or without progesterone were analyzed by western blot for endogenous Musashi1 protein accumulation at GVBD50. Quantifications of fold changes in Musashi1 levels (as indicated below western) were normalized to tubulin from the same sample, and levels in immature oocytes (Imm) arbitrarily set to 1.0. The bar graph of FIG. 1B represents data from 3 independent experiments with S.E.M. (Student's t-test; p<0.01).

Row | Compound | effect on initial polyadenylation or translation of the Mos mRNA ([1]; oocytes treated with MAP kinase signaling inhibitor) | effect on progesterone-stimulated Musashi S322 phosphorylation ([2]; oocytes expressing GST-Musashi1, progesterone stimulated) | time at which Mos mRNA polyadenylation initiates after progesterone stimulation ([1]; oocytes expressing GST-Musashi) | Musashi protein levels in response to progesterone stimulation [3] | maximum progesterone-induced change in phospho-Musashi1 levels normalized to tubulin, relative to immature oocytes ([2]; uninjected oocytes, endogenous Musashi1, n=4, p<0.05)
1 | N#CC(=C(/N)Sc1ccccc1N)/C(C#N)=C(/N)Sc1ccccc1N [UO126] | does not prevent | significant attenuation |  |  | 
2 | CC(=O)[C@H]1CC[C@H]2[C@@H]3CCC4=CC(=O)CC[C@]4(C)[C@H]3CC[C@]12C [progesterone] |  |  | approximately 3 hours | increase | 1.25+/−0.11 fold
